Values of other authors as cited in patent US20020164314A1, “Ovarian hormone induced neural stem cell increase” (Neurostasis, Inc., priority 2001, published 2002).

Experiments:
[1] = tested on: proliferating cells in the dentate gyrus
[2] = tested on: development of female characteristics in animals
[3] = corticosterone, Alonso 2000, adult rats

C[C@]12C[C@H](O)[C@H]3[C@@H](CCC4=CC(=O)CC[C@@]43C)[C@@H]1CC[C@@H]2C(=O)CO [corticosterone]
cell proliferation in the dentate gyrus [1, 3]: dramatically decreases
effect on the SVZ proliferating cells (SVZ proliferating cells; [3]): no effect

C[C@]12CC[C@@H]3c4ccc(O)cc4CC[C@H]3[C@@H]1CC[C@@H]2O [β-estradiol]
estrogenic potency relative to estriol ([2]; ratio versus estriol): 80 times
estrogenic potency relative to estrone ([2]; ratio versus estrone): 12 times

Estrogen
number of new neurons in the dentate gyrus ([1]; Tanapat et al. 1999, adult female): transient increase
proliferation in the dentate gyrus ([1]; Tanapat et al. 1999, adult female rat): stimulate proliferation
mitotic activity in the subventricular zone (SVZ proliferating cells; Tanapat et al. 1999): no mitotic activity
